IC50 data for three compounds are collected here from patent US8541584B2, “3-(1,2,3-triazol-4-yl) pyrrolo [2,3-b] pyridine derivatives” (Merck Patent GmbH, priority 2009, dated 2013).

Structures are written as SMILES.

For one assay, the target named is T1, IKKε (Homo sapiens, UniProt Q14164).
T1 sequence (Q14164 1-716): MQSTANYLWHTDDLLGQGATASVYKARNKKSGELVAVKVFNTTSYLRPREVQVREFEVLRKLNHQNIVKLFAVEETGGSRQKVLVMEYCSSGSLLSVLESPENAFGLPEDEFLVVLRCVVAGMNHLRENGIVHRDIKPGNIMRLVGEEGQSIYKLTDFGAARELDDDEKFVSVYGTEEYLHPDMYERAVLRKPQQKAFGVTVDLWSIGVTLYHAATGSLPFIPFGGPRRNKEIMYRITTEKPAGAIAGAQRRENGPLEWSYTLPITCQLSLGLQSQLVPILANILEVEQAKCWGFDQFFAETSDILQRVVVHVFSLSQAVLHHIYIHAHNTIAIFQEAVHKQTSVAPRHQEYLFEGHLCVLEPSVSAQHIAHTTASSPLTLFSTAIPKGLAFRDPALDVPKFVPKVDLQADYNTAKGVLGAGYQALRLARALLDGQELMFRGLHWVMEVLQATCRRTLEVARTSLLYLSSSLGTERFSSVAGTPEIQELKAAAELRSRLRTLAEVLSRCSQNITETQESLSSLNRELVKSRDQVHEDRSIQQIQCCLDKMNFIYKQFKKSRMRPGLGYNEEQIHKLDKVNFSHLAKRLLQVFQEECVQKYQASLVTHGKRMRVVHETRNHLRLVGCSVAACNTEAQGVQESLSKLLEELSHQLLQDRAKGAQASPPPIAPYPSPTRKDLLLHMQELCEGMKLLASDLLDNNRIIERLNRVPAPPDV
The assay can be described thus: IKKε kinase test (384-well flashplate). Format: biochemical. Conditions: 1 nM IKKε, 10 μM ATP, 30° C., 120 min; read-out: IC50 [IKKepsilon]. The protocol: IKKε—Kinase Test (IKKepsilon)
The kinase assay is performed as 384-well flashplate assay.
1 nM IKKε, 800 nM biotinylated IκBα(19-42) peptide (biotin-C6-C6-[…]) and 10 μM ATP (with 0.3 μCi of ^33P-ATP/well) are incubated in a total volume of 50 μl (10 mM MOPS, 10 mM magnesium acetate, 0.1 mM EGTA, 1 mM dithiothreitol, 0.02% of Brij35, 0.1% of BSA, 0.1% of BioStab, pH 7.5) with or without test substance at 30° C. for 120 min. The reaction is stopped using 25 μl of 200 mM EDTA solution, filtered off with suction after 30 min at room temperature, and the wells are washed 3 times with 100 μl of 0.9% NaCl solution. The non-specific proportion of the kinase reaction (blank) is determined using 3 μM EMD 1126352 (BX-795). Radioactivity is measured in the Topcount. IC50 values are calculated using RS1.

Assay [1] addresses T2, TANK binding kinase (TBK1) (Homo sapiens, UniProt Q9UHD2).
T2 sequence (Q9UHD2 1-729): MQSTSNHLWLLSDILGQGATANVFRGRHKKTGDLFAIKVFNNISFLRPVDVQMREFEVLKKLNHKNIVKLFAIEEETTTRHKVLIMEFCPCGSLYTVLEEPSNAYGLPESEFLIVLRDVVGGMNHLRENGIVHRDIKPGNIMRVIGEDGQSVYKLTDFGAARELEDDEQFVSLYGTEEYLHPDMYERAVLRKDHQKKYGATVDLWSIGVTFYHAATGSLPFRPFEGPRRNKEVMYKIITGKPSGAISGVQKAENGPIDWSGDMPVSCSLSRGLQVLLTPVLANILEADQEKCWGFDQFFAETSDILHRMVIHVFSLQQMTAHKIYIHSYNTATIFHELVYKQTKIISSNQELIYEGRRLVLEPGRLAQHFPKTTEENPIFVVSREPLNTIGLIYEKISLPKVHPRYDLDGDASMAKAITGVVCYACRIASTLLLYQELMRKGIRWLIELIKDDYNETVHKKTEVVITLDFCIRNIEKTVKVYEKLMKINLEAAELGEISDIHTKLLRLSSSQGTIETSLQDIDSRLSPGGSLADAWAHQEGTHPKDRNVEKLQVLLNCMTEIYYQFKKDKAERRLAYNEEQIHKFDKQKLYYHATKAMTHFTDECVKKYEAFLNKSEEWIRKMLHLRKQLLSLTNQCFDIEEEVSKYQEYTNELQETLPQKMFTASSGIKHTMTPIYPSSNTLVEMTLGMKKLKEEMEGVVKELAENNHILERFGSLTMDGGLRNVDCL
The assay can be described thus: TBK1 kinase test (384-well flashplate). Particulars: 0.6 nM TBK1, 10 μM ATP, 30° C., 120 min. It is filed as biochemical. The protocol: The kinase assay is performed as 384-well flashplate assay. 0.6 nM TANK binding kinase (TBK1), 800 nM biotinylated MELK-derived peptide (biotin-Ah-Ah-[…]) and 10 μM ATP (with 0.25 μCi of ^33P-ATP/well) are incubated in a total volume of 50 μl (10 mM MOPS, 10 mM magnesium acetate, 0.1 mM EGTA, 1 mM DTT, 0.02% of Brij35, 0.1% of BSA, pH 7.5) with or without test substance at 30° C. for 120 min. The reaction is stopped using 25 μl of 200 mM EDTA solution, filtered off with suction after 30 min at room temperature, and the wells are washed 3 times with 100 μl of 0.9% NaCl solution. The non-specific proportion of the kinase reaction (blank) is determined using 100 nM staurosporine. Radioactivity is measured in the Topcount. IC50 values are calculated using RS1.

For the next assay, the target named is T3, PDK1 (Homo sapiens, UniProt O15530).
T3 construct: His6 (N)
T3 sequence (O15530 51-556 limits assumed): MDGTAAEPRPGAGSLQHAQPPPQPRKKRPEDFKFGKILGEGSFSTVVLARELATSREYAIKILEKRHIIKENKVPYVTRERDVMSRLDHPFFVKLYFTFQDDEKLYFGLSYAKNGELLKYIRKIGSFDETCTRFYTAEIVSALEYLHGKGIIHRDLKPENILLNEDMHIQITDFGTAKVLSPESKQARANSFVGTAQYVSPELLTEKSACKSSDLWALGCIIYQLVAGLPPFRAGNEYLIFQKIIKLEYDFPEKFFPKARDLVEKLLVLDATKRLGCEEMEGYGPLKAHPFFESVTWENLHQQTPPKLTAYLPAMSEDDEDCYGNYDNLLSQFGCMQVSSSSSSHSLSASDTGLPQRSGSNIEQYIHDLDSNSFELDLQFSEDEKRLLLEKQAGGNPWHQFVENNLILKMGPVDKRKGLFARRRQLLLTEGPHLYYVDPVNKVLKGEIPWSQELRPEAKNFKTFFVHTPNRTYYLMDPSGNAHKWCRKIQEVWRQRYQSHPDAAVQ
The assay can be described thus: Test for the inhibition of PDK1 (384-well flashplate, 33P-ATP). Particulars: His6-PDK1 3.4 nM, 4 μM ATP, 30° C., 60 min. Format: biochemical. Here is the method: 4.0 Test for the Inhibition of PDK1
The experimental batches are carried out in a flashplate system with 384 wells/microtitration plate.
In each case, the PDK1 sample His6-PDK1(1-50)(3.4 nM), the PDK1 substrate biotin-bA-bA-[…] (400 nM), 4 μM ATP (with 0.2 μCi of ^33P-ATP/well) and the test substance in 50 μl of conventional experimental solution per well are incubated at 30° C. for 60 min. The test substances are employed in corresponding concentrations (if desired in a dilution series). The control is carried out without test substance. The reaction is stopped using standard methods and washed. The activity of the kinase is measured via the incorporated radioactivity in top count. In order to determine the non-specific kinase reaction (blank value), the experimental batches are carried out in the presence of 100 nM staurosporin.
The radioactivity (decompositions per minute) of the blank value (no use of test substance in the presence of staurosporin) is subtracted from all other radioactivity values. The controls (kinase activity without test substance) are set equal to 100 percent and all other radioactivity values (after subtracting the blank value) are expressed set in relation thereto (for example in % of the control).
IC50 values (50% inhibition) are determined with the aid of statistics programmes, such as, for example, RS1.

Assay [2] deals with PDK1 kinase activity (P-T308-PKB) in PC3 cells. The assay can be described thus: Cellular testing of PDK1 kinase inhibitors (Luminex assay, P-T308-PKB in PC3 cells). Particulars: Homo sapiens, PC-3, 0.5 h, serum-free, 30 min with test substance. It is filed as cell-based. Here is the method:
Description of the Method for Cellular Testing of PDK1 Kinase Inhibitors
The cellular assay for determination of the PDK1 kinase activity is performed as Luminex assay in the 96-well format. PC3 cells are sown at 20,000 cells per well in 100 μl of medium (45% of […]/45% of Ham's F12/10% of FCS) and incubated under serum-free conditions on the following day for 30 min with serial dilution of the test substance (7 concentrations). The cells are subsequently lysed using 90 μl of lysis buffer (20 mM Tris/HCl pH 8.0, 150 mM NaCl, 1% of NP40, 10% of glycerol, 1% of phosphatase inhibitor I, 1% of phosphatase inhibitor II, 0.1% of protease inhibitor Cocktail III, 0.01% of benzonase) per well, and the lysates are separated off from insoluble cell constituents by means of centrifugation through a 96-well filter plate (0.65 μm). The lysates are incubated overnight at 4° C. with shaking with Luminex beads to which an anti-total PKB antibody has been coupled. Detection is carried out on the following day by addition of a P-T308-PKB antibody and a species-specific PE-labelled secondary antibody. The determination of P-T308-PKB is carried out by measurement in the Luminex100 instrument by determination of 100 events per cavity in a measurement time of 60 sec. As pharmacological blank, the signals obtained from cells which have been treated with 10 μM staurosporin are subtracted from all other batches. The control value used for maximum phosphorylation of PKB on T308 are the signals from cells which have been treated only with the solvent (0.3% of DMSO). The values of the batches treated with test substance are calculated from this as percent of control, and IC50 values are determined by means of RS1.

As to `Cn1cc(-c2cnc3[nH]cc(-c4cn(CCc5ccccc5)nn4)c3c2)cn1` [Compound A16, 5-(1-Methyl-1H-pyrazol-4-yl)-3-(1-phenethyl-1H-1,2,3-triazol-4-yl)-1H-pyrrolo[2,3-b]-pyridine], the 50% inhibitory concentration (IC50) (on IKKε; in assay [1]; on PDK1) was 0.5 to 1000 nM in each case.

Regarding `Cn1cc(-c2cnc3[nH]cc(-c4cn(CCN5CCOCC5)nn4)c3c2)cn1` [Compound A18, 5-(1-Methyl-1H-pyrazol-4-yl)-3-[1-(2-morpholin-4-ylethyl)-1H-1,2,3-triazol-4-yl]-1H-pyrrolo[2,3-b]pyridine], the IC50 (at IKKε; in assay [1]; on PDK1) was 0.5 to 1000 nM throughout.

For the compound `Cn1cc(-c2cnc3[nH]cc(-c4cn(CC(O)c5ccccc5)nn4)c3c2)cn1` (centres unmarked) [Compound A31, 2-{4-[5-(1-Methyl-1H-pyrazol-4-yl)-1H-pyrrolo[2,3-b]pyridin-3-yl]-1,2,3-triazol-1-yl}-1-phenylethanol], the results for the IC50 (in assay [2]; against PDK1) were 1 to 10 µM and 0.5 to 1000 nM, respectively.
